Test results as given in patent US5514662A, “Use of amphotericin B derivatives as protease inhibitors” (priority 1991, dated 1996).

Tests used:
[1] = target: protease p10 (Human immunodeficiency virus type 1 (BRU ISOLATE), UniProt P03367); assay: Activity on recombinant protease p10; format: biochemical; conditions: 1 μM for DABF-AmB
Protocol: DABF-AmB was tested, at a concentration of 1 μM, on various proteases (papain, chymotrypsin, kallicrein, leucocyte elastase, cathopsin D and recombinant protease p10) under conditions and in the presence of substrates appropriate for each of the proteases tested.

[2] = tested on: HIV-1 isolates derived from patients; assay: Infection of PBMCs by HIV-1 isolates derived from patients; format: cell-based; conditions: 10 μM, 10 viral strains derived from patients, RT activity after 10 days
Protocol: PBMCs were infected under the conditions described above in the general procedures, with various HIV-1 isolates derived from patients, or identified as resistant to AZT. The anti-viral effect of DABF-AmB was determined by measuring the RT activity in the supernatants after 10 days of culture.

[3] = tested on: CD4; assay: Membrane expression of CD4 in HIV-1 infected Jurkat and CEM cells; format: cell-based, human; conditions: 10 μM continuous, 8th day
Protocol: Membrane expression of CD4 and gp120 is measured by means of the monoclonal antibodies OKT4 (0,5 μg/ml), 110-4 (2 μg/ml) respectively, which are stained using a […].
The fluorescence is measured by means of a FACSTAR cell counter (BECTON DICKINSON, MOUNTAIN VIEW, Calif.). The results are expressed as mean fluorescence intensity.
The CD4-specific monoclonal antibody (OKT4 was bought from ORTHO PHARMACEUTICAL CORPORATION (Raritan, N.J.).
Immunofluorescence analyses are carried out on the 8th day of the infection in order to verify whether the inhibition of HIV replication by DABF-AmB results in 10 a reduced membrane expression of viral antigens.

[4] = tested on: HIV LAV/BRU; assay: Protection of CD4 cells in cultures of HIV-infected human thymocytes; format: cell-based, HIV-1
Protocol: Human thymuses were obtained during corrective heart surgery operations on 3 to 7 year old children. The tissues were cut into fragments and the red blood cells were removed by treating with […] buffer. After washing in PBS buffer, cellular suspensions were prepared in an RPMI 1640 medium containing 10% of human serum type […]. Dead cells were removed by passing over a sterile nylon wool column.
The cells were infected with HIV LAV/BRU as indicated above in the general procedures, and then re-inoculated in the presence of PHA, of anti-CD2 or anti-CD3 antibodies and of IL2 and cultured for 10 days at a rate of 1×10^7 cells/ml. After 10 days, viral production was evaluated by measuring the RT activity in the supernatants and the distribution of CD4/CD8 was evaluated by double fluorescence flow cytometry by means of FITC-labelled anti-CD4 antibodies (OKT4) and phycoerythrin-labelled anti-CD8 antibodies (OKT8). DABF-AmB was added to the cultures immediately after infection and maintained during the entire duration of the culture.

[5] = tested on: HUT78 cells; assay: Cytotoxicity in HUT78 cells; format: cell-based
[6] = tested on: HIV (cellular viraemia); assay: Cellular viraemia of AIDS patients' lymphocytes (p24 in supernatants); format: cell-based
Protocol: Lymphocytes from AIDS patients (<200CD4) are isolated on a Ficoll gradient using heparinised blood. The cells are taken up in RPMI 1640 medium containing antibiotics, 10 U/ml of recombinant IL2 (Boeringher) and anti-interferon alpha serum (anti-IFNα, Sigma) plus 10% of foetal calf serum. The cells are cultured in 24-well plates in an amount of 5×10^5 cells per well for the first concentration and then subjected to 5 fold serial dilutions in the same medium. Half of the medium is replaced twice weekly. Every week, 3×10^5 fresh allogeneic PBMCs, derived from healthy donors, are added to the cultures. The cultures are kept for 28 days in the presence of varying concentrations of DABF-AmB. Vital production is measured weekly by assaying the protein p24 in the supernatants. Each culture and each assay are carried out in duplicate.
The symbols (-) denote that the amount of p24 detected is at least 95% less than the values obtained in the untreated control cultures. […] The results obtained in the LOU patient indicates either a resistance of the virus to the product, or a too high initial viral content. These experiments made it possible to evaluate the IC50 for DABF-AmB at between 1 and 5 μM for the different viral isolates (IC50=Concentrationof the product inhibiting 50% of the p24 titer in the culture supernatants, for a patient cells dilution corresponding to a viral content equivalent to 10TCID50.

[7] = target: T1, reverse transcriptase (Human immunodeficiency virus type 1 (BRU ISOLATE), UniProt P03367); assay: Direct action on reverse transcriptase in vitro; format: biochemical
T1 construct: probably viral enzyme of LAV/BRU (LAI) culture supernatant

[8] = tested on: HRV14; assay: Cytopathogenic effect of HRV14 in HeLa-Ohio cells; format: cell-based
Protocol: HeLa-Ohio cells cultured until they have become confluent, are infected with a suspension of HRV14 virus. The cytopathogenic effect of the virus is evaluated by staining the cells with a 0.5% solution of crystal violet and 20% of methanol; after rinsing the plates with water, the optical density is read at 550 nm.
For the rest of the experiment, the cells are infected with a viral suspension with a titre such that 50% of the cells are killed after 3 days on control cells not receiving any treatment. 1 hour after the infection, the test product (AmB or DABF-AmB) is added at concentrations ranging from 0.03 to 100 μM. The percentage inhibition of the cytopathogenic effect is determined as follows:
OD (treated infected cells)-OD (infected cells)!
OD (healthy cells)-OD (infected cells)!
The effect of the addition of DABF-AmB was tested at various times: preincubation of the cells with DABF-AmB before the viral infection; addition of DABF-AmB at the time of the infection; addition of DABF-AmB after the infection, during the period of viral proliferation.

For `C[C@@H]1[C@H](O)[C@@H](C)/C=C/C=C/C=C/C=C/C=C/C=C/C=C/[C@H](O[C@@H]2O[C@H](C)[C@@H](O)[C@H](NCC(=O)[C@@H](O)[C@@H]3OC(c4ccccc4)OC[C@H]3O)[C@@H]2O)C[C@@H]2O[C@](O)(C[C@@H](O)C[C@@H](O)[C@H](O)CC[C@@H](O)C[C@@H](O)CC(=O)O[C@H]1C)C[C@H](O)[C@H]2C(=O)O` (stereo partly drawn) [DABF-AmB, 1-deoxy-1-amino-4,6-O-benzylidene-D-fructosyl-AmB], the “inhibition of protease p10” value [1] was “does not inhibit”, the “inhibition of infection of PBMC” value [2] was “substantially reducing, or even completely inhibiting” and the “level of the membrane antigen CD4” value [3] was “increases until it reaches that for the uninfected cells”. The “RT activity in the supernatants of infected thymocytes” value ([4]; 10 days) was “decrease in RT activity”, the “CD4+ cells in infected thymocyte cultures” value ([4]; in proportion to the concentration) was “preservation or the reappearance of CD4+ cells” and the “infection of CD4+ thymocytes and distribution of subpopulations of thymic cells” value ([4]; infected cultures) was “inhibits the infection of CD4+ thermocytes by HIV and restores a normal distribution of the subpopulations of thymic cells”. For the same molecule, the cytotoxicity ([5]; 50 μM, HIV2 table, 3 days) was “low cytotoxicity”, the cytotoxicity ([5]; 50 μM, SIV table, 3 days) was “low cytotoxicity” and the cytotoxicity ([5]; 100 μM, HIV2 table, 3 days) was “high cytotoxicity”. The cytotoxicity ([5]; 100 μM, HIV2 table, 5 days) was “cytotoxicity”, the cytotoxicity ([5]; 100 μM, SIV table, 3 days) was “high cytotoxicity” and the cytotoxicity ([5]; 100 μM, SIV table, 5 days) was “cytotoxicity”. For the same molecule, the “number of patients in which cellular viraemia is inhibited” value ([6]; 8 different patients) was 7 out of 8, the IC50 ([6]; Human immunodeficiency virus 1, Lymphocyte, read-out: IC50 (concentration inhibiting 50% of the p24 titer in the culture supernatants)) was 1 to 5 µM and the “cellular viraemia (p24)” value ([6]; patient SAM + MS, day 0) was “- (the amount of p24 detected is at least 95% less than the values obtained in the untreated control cultures)”. The “cellular viraemia (p24)” value ([6]; patient SAM + MS, day 14) was “- (the amount of p24 detected is at least 95% less than the values obtained in the untreated control cultures)”, the “cellular viraemia (p24)” value ([6]; patient five + MS, day 0) was “- (the amount of p24 detected is at least 95% less than the values obtained in the untreated control cultures)” and the “cellular viraemia (p24)” value ([6]; patient five + MS, day 7) was “- (the amount of p24 detected is at least 95% less than the values obtained in the untreated control cultures)”. For the same molecule, the “cellular viraemia (p24)” value ([6]; patient four + MS, day 0) was “- (the amount of p24 detected is at least 95% less than the values obtained in the untreated control cultures)”, the “cellular viraemia (p24)” value ([6]; patient four + MS, day 7) was “- (the amount of p24 detected is at least 95% less than the values obtained in the untreated control cultures)” and the “cellular viraemia (p24)” value ([6]; patient four + MS, day 14) was “- (the amount of p24 detected is at least 95% less than the values obtained in the untreated control cultures)”. For the same molecule, the “cellular viraemia (p24)” value ([6]; patient four + MS, day 21) was “- (the amount of p24 detected is at least 95% less than the values obtained in the untreated control cultures)”, the “cellular viraemia (p24)” value ([6]; patient four + MS, day 28) was “- (the amount of p24 detected is at least 95% less than the values obtained in the untreated control cultures)” and the “cellular viraemia (p24)” value ([6]; patient one + MS, day 0) was “- (the amount of p24 detected is at least 95% less than the values obtained in the untreated control cultures)”. For the same molecule, the “cellular viraemia (p24)” value ([6]; patient one + MS, day 7) was “- (the amount of p24 detected is at least 95% less than the values obtained in the untreated control cultures)”, the “cellular viraemia (p24)” value ([6]; patient seven + MS, day 0) was “- (the amount of p24 detected is at least 95% less than the values obtained in the untreated control cultures)” and the “cellular viraemia (p24)” value ([6]; patient seven + MS, day 14) was “- (the amount of p24 detected is at least 95% less than the values obtained in the untreated control cultures)”. The “cellular viraemia (p24)” value ([6]; patient six + MS, day 0) was “- (the amount of p24 detected is at least 95% less than the values obtained in the untreated control cultures)”, the “cellular viraemia (p24)” value ([6]; patient six + MS, day 14) was “- (the amount of p24 detected is at least 95% less than the values obtained in the untreated control cultures)” and the “cellular viraemia (p24)” value ([6]; patient three + MS, day 0) was “- (the amount of p24 detected is at least 95% less than the values obtained in the untreated control cultures)”. The “cellular viraemia (p24)” value ([6]; patient three + MS, day 7) was “- (the amount of p24 detected is at least 95% less than the values obtained in the untreated control cultures)”, the “cellular viraemia (p24)” value ([6]; patient three + MS, day 14) was “- (the amount of p24 detected is at least 95% less than the values obtained in the untreated control cultures)” and the “cellular viraemia (p24)” value ([6]; patient three + MS, day 21) was “- (the amount of p24 detected is at least 95% less than the values obtained in the untreated control cultures)”. The “cellular viraemia (p24)” value ([6]; patient three + MS, day 28) was “- (the amount of p24 detected is at least 95% less than the values obtained in the untreated control cultures)”, the “cellular viraemia (p24)” value ([6]; patient two + MS, day 0) was “- (the amount of p24 detected is at least 95% less than the values obtained in the untreated control cultures)” and the “cellular viraemia (p24)” value ([6]; patient two + MS, day 7) was “- (the amount of p24 detected is at least 95% less than the values obtained in the untreated control cultures)”. The “cellular viraemia (p24)” value ([6]; patient two + MS, day 14) was “- (the amount of p24 detected is at least 95% less than the values obtained in the untreated control cultures)”, the “cellular viraemia (p24)” value ([6]; patient two + MS, day 21) was “- (the amount of p24 detected is at least 95% less than the values obtained in the untreated control cultures)” and the “cellular viraemia (p24)” value ([6]; patient two + MS, day 28) was “- (the amount of p24 detected is at least 95% less than the values obtained in the untreated control cultures)”. The “direct action on reverse transcriptase activity” value [7] was “no direct action”, the “concentration from which cytopathogenic effects are completely inhibited” value ([8]; added 1 hour after infection) was at least 10 µM and the IC50 ([8]; added 1 hour after infection, read-out: IC50 (50% inhibition of the cytopathogenic effect)) was 5 µM. The “stage of action on HRV14 by time of addition” value ([8]; addition before, at time of, or after infection) was “acts essentially during viral proliferation”.
